Counter-ions that a name gives are not always drawn.
Test system: HRECs treated with VEGF (human retinal endothelial cells)
Experiment: in vitro permeability / Electrical Cell-Substrate Impedance Sensing (ECIS) assay
Assay type: cell-based
Details: 50 ng/ml Rec. VEGF, compounds at 10 uM, resistance calculated at the end of 24 hrs
Experimental: The 250-um diameter gold electrode measures the ion current in the cell layer and measures the resistance and how the barrier function is altered with VEGF and drug treatment.
The inventors used the Prestwick chemical library compounds, which consists of a total of 1520 library compounds to check their effectiveness to decrease permeability in HRECs treated with VEGF (FIG. 4). […] The in vitro permeability or Electrical Cell-Substrate Impedance Sensing (ECIS) assay was carried out using Applied biophysics Z theta instrument, using 96W10idf PET plates. The HRECs were first seeded on the plates and the cells were allowed to grow until the desired resistance was achieved (800-1200V), this usually takes 15-18 hrs. After that the cells were treated with 50 ng/ml Rec. VEGF and the compounds at 10 uM concentration. At the end of 24 hrs, the resistance was calculated (an increase in resistance implies decreased permeability).

Question: How did the “resistance of EC layer (an increase in resistance implies decreased permeability)” value turn out when CNCCCC1c2ccccc2C=Cc2ccccc21 [Protriptyline HCl, protriptyline] was run?
Answer: significant increase in resistance

Question: For O=[N+]([O-])c1ccc(O)c2ncccc12 [Nitroxolone, nitroxolone], which “resistance of EC layer (an increase in resistance implies decreased permeability)” value is on record?
Answer: significant increase in resistance

Question: For CNCCCN1c2ccccc2CCc2ccccc21 [Desipramine HCl, desipramine], which “resistance of EC layer (an increase in resistance implies decreased permeability)” value is on record?
Answer: significant increase in resistance

Question: How did the “resistance of EC layer (an increase in resistance implies decreased permeability)” value turn out when c1ccc2c(CC3=NCCN3)cccc2c1 [Naphazoline HCl, naphazoline] was run?
Answer: increased resistance

Question: How did the “resistance of EC layer (an increase in resistance implies decreased permeability)” value turn out when N#Cc1ccc(Oc2ccc3c(c2)COB3O)cc1 [Crisaborole, crisaborole] was run?
Answer: significant increase in resistance

Question: How did the “resistance of EC layer (an increase in resistance implies decreased permeability)” value turn out when Cc1ccc(N(CC2=NCCN2)c2cccc(O)c2)cc1 [Phentolamine, phentolamine] was run?
Answer: increased resistance

Question: OC[C@H]1O[C@@H](c2ccc(Cl)c(Cc3ccc(O[C@H]4CCOC4)cc3)c2)[C@H](O)[C@@H](O)[C@@H]1O [Empaglifozin, empagliflozin] was tested. Which “resistance of EC layer (an increase in resistance implies decreased permeability)” value did it give?
Answer: significant increase in resistance

Question: CN(C)CCN(Cc1cccs1)c1ccccn1 [Methapyrilene, methapyrilene] was tested. Which “resistance of EC layer (an increase in resistance implies decreased permeability)” value did it give?
Answer: increased resistance

Question: Cc1noc(NS(=O)(=O)c2ccc(N)cc2)c1C [Sulfisoxazole, sulfisoxazole] was tested. Which “resistance of EC layer (an increase in resistance implies decreased permeability)” value did it give?
Answer: increased resistance

Question: How did the “resistance of EC layer (an increase in resistance implies decreased permeability)” value turn out when CC(C(=O)O)c1ccc(C(=O)c2cccs2)cc1 (stereo not shown) [Suprofen, suprofen] was run?
Answer: increased resistance

Reference: patent US20250381195A1, “Methods of Treating Diabetic Macular Edema” (UNM Rainforest Innovations, priority 2024, published 2025)
